What was measured:
[1] = test system: 3D bronchial cultures; experiment: Modified GSH/GSSG-Glo assay in 3D bronchial cultures; type: cell-based, human
Description: (§1) • 1. A tissues sample is treated basolaterally in medium containing 25 μM ROS-Glo™ H2O2 substrate for the desired exposure duration. • Treatment duration is not longer than 6 hours due to instability of the substrate. • 2. After treatment, 75 μL of the medium is collected for the ROS endpoint (see example 3), and the remaining cell or tissue sample transferred to new 24-well plate for the GSH/GSSG endpoint. ROS samples are stored at 4° C. for a maximum total of 6 hours taking into account the treatment duration, while GSH/GSSG samples must be processed immediately.
This Specific Example Based on GSH/GSSG-Glo™ Assay Kit Catalogue #V6611 and V6612 and Described in Technical Manual #TM344 from Promega • (A) Starting with the cell or tissue sample from point 2 of Example 1, the cell supernatant is removed. • (B) 100 μL of cold Passive lysis buffer is 1× diluted in water is added per well, to tissue/cell samples and shaken for 5 min at 300 rpm on ice. • (C) 100 μL of lysate is placed into 2 wells containing 50 μL each. • (D) In one well 1 μL of Luciferin-NT is added for quantification of total GSH. • (E) In the other well, 1 μL of Luciferin-NT and 0.5 μL of N-Ethylmaleimide (NEM) at 25 mM is added for quantification of oxidized GSSG. • (F) Both wells are incubated for 5 min shaking at 300 rpm at room temperature. • (G) 50 μL of Luciferin Generation Reagent is added per well, and both wells shaken for 1 min. • (H) Both wells are incubated for 29 min standing at room temperature. • (I) 100 μL of Luciferin detection reagent is added to both wells and they are shaken for 1 min. • (J) Both wells are incubated for 14 min. • (K) Both wells are transferred to an assay plate containing a calibration curve (suitably prepared as in the supplier's protocol). • (L) The luminescence of each well is measured with FLUOstar® Omega “GSHG assay”
(§2) A 3D bronchial culture can be provided by isolating bronchial cells or using commercially available primary cells, culturing them and seeding them on a 3D framework. Suitable cultures include MucilAir™. MucilAir™ is an in vitro cell model of the human airway eplithelium cultures at the air liquid interface and available from Epithelix (for example, here https://www.epithelix.com/products/mucilair).
(§3) FIG. 11 is a further schematic showing how GSH/GSSG and ROS assays (as detailed in Example 4 and Example 5 above) can be adapted to 3D bronchial cultures. In this experiment, three 3D cultures were used. […] The GSH/GSSG-Glo assays were performed on samples from the cell culture within the culture insert and the ROS-Glo assays were performed on the basolateral medium. This was performed in triplicate.

[2] = test system: 3D bronchial cultures; experiment: ROS-Glo H2O2 assay on basolateral medium of 3D bronchial cultures; type: cell-based, human
Description: as §1
(§4) This Specific Example is Based on Non-Lytic Variant of ROS-Glo™ H2O2 Assay Kit Catalogue #G8820 and G8821 and Described in Technical Manual TM391 from Promega. • (a) 75 μL of sample medium collected in Example 1, step 2, and 75 μL of compound interference controls are added to an assay plate. • (b) 10 wells, 100 μL per well are added to the assay plate for standard curve calibration. • (c) 75 μL of freshly prepared ROS-Glo Detection Solution™ is added to all samples and compound interference control wells.
as §2, §3

[3] = test system: NHBE cells; experiment: Modified GSH/GSSG-Glo assay in NHBE cells; type: cell-based, human
Description: • 1. A tissues sample is treated basolaterally in medium containing 25 μM ROS-GloTM H2O2 substrate for the desired exposure duration. • Treatment duration is not longer than 6 hours due to instability of the substrate. • 2. After treatment, 75 μL of the medium is collected for the ROS endpoint (see example 3), and the remaining cell or tissue sample transferred to new 24-well plate for the GSH/GSSG endpoint. ROS samples are stored at 4° C. for a maximum total of 6 hours taking into account the treatment duration, while GSH/GSSG samples must be processed immediately. This Specific Example Based on GSH/GSSG-GloTM Assay Kit Catalogue #[…] and Described in Technical Manual #TM344 from Promega • (A) Starting with the cell or tissue sample from point 2 of Example 1, the cell supernatant is removed. • (B) 100 μL of cold Passive lysis buffer is 1× diluted in water is added per well, to tissue/cell samples and shaken for 5 min at 300 rpm on ice. • (C) 100 μL of lysate is placed into 2 wells containing 50 μL each. • (D) In one well 1 μL of Luciferin-NT is added for quantification of total GSH. • (E) In the other well, 1 μL of Luciferin-NT and 0.5 μL of N-Ethylmaleimide (NEM) at 25 mM is added for quantification of oxidized GSSG. • (F) Both wells are incubated for 5 min shaking at 300 rpm at room temperature. • (G) 50 μL of Luciferin Generation Reagent is added per well, and both wells shaken for 1 min. • (H) Both wells are incubated for 29 min standing at room temperature. • (I) 100 μL of Luciferin detection reagent is added to both wells and they are shaken for 1 min. • (J) Both wells are incubated for 14 min. • (K) Both wells are transferred to an assay plate containing a calibration curve (suitably prepared as in the supplier's protocol). • (L) The luminescence of each well is measured with FLUOstar® Omega “GSHG assay” In this example oxidative stress was simulated by adding menadione sodium bisulfite to four samples. Four of the samples had 10 μM, 30 μM, 100 μM or 300 μM of menadione sodium bisulfite respectively added to the medium to simulate increasing levels of oxidative stress. The fifth sample was used as the vehicle control wherein on the medium and 0.3% water were added. The assays were performed in triplicate on NHBE cells. In the top row of FIG. 9, the same experiments of the invention as per Example 6 (shown top row of FIG. 8) were carried out. In addition, the ROS endpoint analysis method of the invention (as per Example 5 above) was carried out on the same samples at the 1 hour and 2 hour time points (shown in FIG. 9, bottom row). A star (*) indicates significance P<0.05 paired t-test. Two stars (**) indicates significance P<0.01 paired t-test. The cells used where an NHBE cell line exposed to water-soluble menadione sodium bisulfite.

[4] = test system: NHBE cells; experiment: ROS-Glo H2O2 assay (non-lytic) in NHBE cells; type: cell-based, human
Description: • 1. A tissues sample is treated basolaterally in medium containing 25 μM ROS-GloTM H2O2 substrate for the desired exposure duration. • Treatment duration is not longer than 6 hours due to instability of the substrate. • 2. After treatment, 75 μL of the medium is collected for the ROS endpoint (see example 3), and the remaining cell or tissue sample transferred to new 24-well plate for the GSH/GSSG endpoint. ROS samples are stored at 4° C. for a maximum total of 6 hours taking into account the treatment duration, while GSH/GSSG samples must be processed immediately. This Specific Example is Based on Non-Lytic Variant of ROS-GloTM H2O2 Assay Kit Catalogue #[…] and Described in Technical Manual TM391 from Promega. • (a) 75 μL of sample medium collected in Example 1, step 2, and 75 μL of compound interference controls are added to an assay plate. • (b) 10 wells, 100 μL per well are added to the assay plate for standard curve calibration. • (c) 75 μL of freshly prepared ROS-Glo Detection SolutionTM is added to all samples and compound interference control wells. D-cysteine is added on top if not present in reagents, preferably 0.01 to 20 mM, preferably 0.1 to 10 mM. • (d) 100 μL of ROS-Glo Detection SolutionTM is added to standard curve wells. • (e) The assay plate is shaken for 1 minute at room temperature on a plate shaker set at 300 rpm. • (f) The plate is incubated for 20 minutes standing at room temperature. • (g) Luminescence is measured with FLUOstar® Omega using the pre-defined “ROS-GloTM H2O2 assay”. In this example oxidative stress was simulated by adding menadione sodium bisulfite to four samples. Four of the samples had 10 μM, 30 μM, 100 μM or 300 μM of menadione sodium bisulfite respectively added to the medium to simulate increasing levels of oxidative stress. The fifth sample was used as the vehicle control wherein on the medium and 0.3% water were added. The assays were performed in triplicate on NHBE cells. In the top row of FIG. 9, the same experiments of the invention as per Example 6 (shown top row of FIG. 8) were carried out. […]

[5] = test system: 3D bronchial cultures; experiment: Cell viability in 3D bronchial cultures; type: cell-based, human; conditions: lipid-soluble menadione
[6] = test system: A549 lung cell line; experiment: GSH/GSSG assay in A549 lung cell line; type: cell-based, human; conditions: A549, dose-dependent
Description: This Specific Example Based on GSH/GSSG-Glo™ Assay Kit Catalogue #V6611 and V6612 and Described in Technical Manual #TM344 from Promega • (A) Starting with the cell or tissue sample from point 2 of Example 1, the cell supernatant is removed. • (B) 100 μL of cold Passive lysis buffer is 1× diluted in water is added per well, to tissue/cell samples and shaken for 5 min at 300 rpm on ice. • (C) 100 μL of lysate is placed into 2 wells containing 50 μL each. • (D) In one well 1 μL of Luciferin-NT is added for quantification of total GSH. • (E) In the other well, 1 μL of Luciferin-NT and 0.5 μL of N-Ethylmaleimide (NEM) at 25 mM is added for quantification of oxidized GSSG. • (F) Both wells are incubated for 5 min shaking at 300 rpm at room temperature. • (G) 50 μL of Luciferin Generation Reagent is added per well, and both wells shaken for 1 min. • (H) Both wells are incubated for 29 min standing at room temperature. • (I) 100 μL of Luciferin detection reagent is added to both wells and they are shaken for 1 min. • (J) Both wells are incubated for 14 min. • (K) Both wells are transferred to an assay plate containing a calibration curve (suitably prepared as in the supplier's protocol). • (L) The luminescence of each well is measured with FLUOstar® Omega “GSHG assay” […]

[7] = test system: NHBE cells; experiment: Cell viability / cytotoxicity (ATP levels) in NHBE cells; type: cell-based, human
[8] = test system: A549; conditions: A549, 5,000 cells/well, menadione-treated; cited from earlier work
[9] = test system: Rat hepatocytes; conditions: Rat hepatocytes, 50,000 cells/well, menadione-treated; cited from earlier work
[10] = test system: A549 lung cell line; experiment: Cell viability in A549 lung cell line; type: cell-based, human; conditions: A549, two highest concentrations
[11] = test system: HeLa; conditions: HeLa, 5,000 cells/well, menadione-treated; cited from earlier work
[12] = test system: HepG2; conditions: HepG2, 10,000 cells/well, menadione-treated; cited from earlier work
[13] = test system: A549 lung cell line; experiment: ROS-Glo H2O2 assay in A549 lung cell line; type: cell-based, human; conditions: A549, dose-dependent
Description: as §4
In this experiment, an A549 lung cell line was exposed to lipid-soluble menadione (Vitamin K3) to simulate oxidative stress.

[14] = test system: HepaRG ®; conditions: HepaRG, 50,000 cells/well, menadione-treated; cited from earlier work
[15] = higher dose (300 μM) versus lower dose, 3D bronchial culture
[16] = higher dose (300 μM), 3D bronchial culture
[17] = lower dose (100 μM), 3D bronchial culture
[18] = 30 µM, 1 hour and 2 hour time points
[19] = 3D bronchial cultures, lipid-soluble menadione, dose-dependent

In the case of CC1(S(=O)(=O)[O-])CC(=O)c2ccccc2C1=O.[Na+] (stereo not shown) [Menadione sodium bisulfite, menadione sodium bisulfite], the GSSG [1, 15] was “no further impact”, the GSH [1, 16] was “further decreased” and the GSH/GSSG [1, 16] was “further decreased”. For the same compound, the GSH/GSSG [1, 17] was “no effect on GSH/GSSG”, the ROS [2, 15] was “no further impact” and the ROS [2, 17] was “significantly increased ROS”. The GSH/GSSG [3, 18] was “no changes in GSH/GSSG” and the ROS [4, 18] was “increased ROS”.
With CC1=CC(=O)c2ccccc2C1=O [Menadione] the GSH [1, 19] was “dose-dependent decrease”, the GSH/GSSG [1, 19] was “dose-dependent decrease” and the GSSG [1, 19] was “increase”. For the same compound, the cell viability [5] was “no effects on cell viability”, the GSH/GSSG [6] was “decrease in GSH/GSSG” and the cell viability ([7]; 300 μM (highest dose)) was “decreased cell viability”. The “oxidative stress and cytotoxicity (as determined by ATP levels) with longer exposure” value ([7]; 2 hour versus 1 hour time point) was “more oxidative stress and cytotoxicity”, the ROS [2, 19] was “increase” and the “Ratio GSH/GSSG” value [8] was 10.9. For the same compound, the “Ratio GSH/GSSG” value [9] was 1.1, the cell viability [10] was “effects on cell viability at the two highest concentrations” and the “Ratio GSH/GSSG” value [11] was 2.2. For the same compound, the “Ratio GSH/GSSG” value [12] was 2.2, the GSH/GSSG ([3]; 100 μM) was “decreased GSH/GSSG” and the GSH/GSSG ([3]; 300 μM (highest dose)) was “lowest GSH/GSSG”. The GSH/GSSG reduction ([3]; 300 μM (highest dose)) was 6 fold, the ROS [13] was “increase in ROS” and the “Ratio GSH/GSSG” value [14] was 2.5. For the same compound, the ROS ([4]; 100 μM) was “increased ROS” and the ROS ([4]; 300 μM (highest dose)) was “highest ROS”.

Source: patent US20260243781A1, “METHOD” (Philip Morris Products S.A., priority 2023, published 2026)
